“And” between values parts separate entries of the source, which are not always exact repeats. Equal entries are not always repeated. Where two headings read alike, the source gives them in different places.
What was measured:
[1] = test system: Aphid (Schizaphis gramium); test: Laboratory filter-paper bioassay of aphid susceptibility to nootkatone; type: in vivo; settings: 1% v/v nootkatone in ethanol on filter paper, 24 hours post introduction
Text: This example describes a laboratory bioassay in which groups of aphids were exposed to a nootkatone-containing composition to determine aphid susceptibility to nootkatone.
(§1) One milliliter of a 1% v/v nootkatone in ethanol was applied directly to 9 cm filter paper discs using a micropipette. The filter papers were allowed to dry completely and cut to the appropriate size prior to the start of the test. Pure ethanol was used as a control.
Treated and untreated filter papers were cut into 2.5 inch (6.35 cm) squares and folded into envelopes to serve as containers for the test. Five replicates of 10 aphids were tested per treatment. After the aphids were placed inside, the openings were sealed using clips so that the aphids could not escape.
Aphids were observed after 24 hours post-introduction to the test containers.
(§2) Readings were discontinued if treated mortality reached 100%, or control mortality exceeded 20%.

[2] = test system: Red flour beetle (Tribolium castaneum); test: Laboratory filter-paper bioassay, red flour beetles exposed to nootkatone; type: in vivo; set-up: unit not given here; settings: 1% v/v nootkatone on filter paper
Text: (§3) This example describes a laboratory bioassay in which groups of house flies and red flour beetles were exposed to a nootkatone-containing composition to determine their susceptibilities to low concentrations of nootkatone.
as §1, with “A negative control group (consisting of untreated replicates—ethanol only)” for “Pure ethanol”, “also assessed for comparative purposes.” for “used as a control.”
(§4) Treated and untreated filter papers were cut so that they covered the bottom of a suitable container for each test species as follows:
Flour beetles—Five replicates of 10 insects were tested. A Petri dish lid 3.54 inches (9 cm) in diameter was inverted and served as the substrate for a 2.75 inch (7 cm) treated filter paper circle. The small Petri dish bottom was inverted over the paper and had its sides treated with Fluon (or similar) to prevent climbing and force exposure with the filter paper. The entire Petri dish was enclosed with two rubber bands.
as §2

[3] = test system: House fly (Musca domestica); test: Laboratory filter-paper bioassay, house flies exposed to nootkatone; type: in vivo; set-up: key to Dead, Means: % mortality of insects (treated mortality up to 100%); KD, Means / Affected, Means: unit not given here; settings: 1% v/v nootkatone on filter paper
Text: as §3
as §1, with “A negative control group (consisting of untreated replicates—ethanol only)” for “Pure ethanol”, “also assessed for comparative purposes.” for “used as a control.”
as §4
Flies—Five replicates of 10 insects were tested. Inverted 10 ounce (295 mL) clear plastic cups with a 0.5 inch (1.27 cm) hole burned into the center of the bottom, and with the sides coated with Fluon (or similar) were used as the treatment containers. The bottoms of the containers consisted of Petri dish lids 3.54 inches ([…]) in diameter lined with a treated filter paper circle the same diameter. The cup was placed over the filter paper in the lid and both were secured in place using 2 rubber bands. The insects were introduced through the hole in the cup, and a plastic disc was placed over the opening to prevent escapes.
as §2

[4] = test system: honey bee (Apis mellifera); settings: for 48-hour Mortality (%), replicates A-C: individual replicates
Description: A negative control group and a solvent control group were maintained concurrently. Three replicate test chambers were maintained in each control and treatment group, with 10 bees in each test chamber. […] The positive control test was conducted concurrently with the definitive test. […] OECD Guidelines for Testing of Chemicals. […] The cumulative mortality observed in the test groups was used to determine the LD50, LOEC, and NOEC.
The primary stock served as a dosing solution for the highest concentration (100 μg a.i./bee). […] Prior to dosing, young adult bees were removed from the frames, distributed into holding containers, and returned to the holding incubator. Approximately 50 bees were impartially placed in each of eight containers in preparation for use in the various treatment and control groups as needed during the dosing procedure.
The test chambers were stainless steel cylinders measuring approximately 9 cm in diameter and 9 cm high, with perforations for ventilation. Each end of the test chamber was covered with a disposable plastic petri dish (approximately 10 cm in diameter), and the bottom petri dish was lined with filter paper. An inverted glass vial containing approximately 10 mL of 50% (w/v) sucrose solution was inserted through the lid of the chamber. The opening of the vial was covered with gauze, which prevented leakage allowing the bees to feed ad libitum throughout the test period. The test chambers were identified by study number, dosage group, and replicate.
Prior to dosing, the bees in each holding container were immobilized with nitrogen. While anesthetized, bees were individually dosed with the appropriate dosing solution. Bees in the test substance, positive control, and solvent control groups were dosed by administering a 4 μL droplet of the appropriate dosing solution to the dorsal side of the thorax of each bee with an adjustable micropipette. Ten bees were impartially placed in each test chamber. Bees in the positive control treatment group were handled and dosed in the same manner. Solvent control bees were dosed with acetone. Negative control bees were not dosed but were handled identically to the treated bees. After dosing, test chambers were distributed into a testing incubator by indiscriminate draw.
The bees were maintained in continuous darkness during the test except during periods of dosing and observations.
The bees were observed and counted periodically to evaluate mortality and signs of toxicity or abnormal behavior.
The negative control group was used for comparison with the treatment groups.

SMILES: C=C(C)[C@@H]1CCC2=CC(=O)C[C@@H](C)[C@]2(C)C1 [Nootkatone, nootkatone]
- Affected, Means [1]: 100.0%
- Dead, Means [1]: 94.0%
- KD (knockdown), Means [1]: 6.0%
- Dead, Means ([1]; listed as nootkatone): 94%
- KD (knockdown), Means ([1]; listed as nootkatone): 6%
- Affected, Means ([2]; 30 minutes post introduction): 0.0
- Dead, Means ([2]; 30 minutes post introduction): 0.0
- KD, Means ([2]; 30 minutes post introduction): 0.0
- Affected, Means ([2]; 1 hour post introduction): 0.0
- Dead, Means ([2]; 1 hour post introduction): 0.0
- KD, Means ([2]; 1 hour post introduction): 0.0
- Affected, Means ([2]; 4 hours post introduction): 0.0
- Dead, Means ([2]; 4 hours post introduction): 0.0
- KD, Means ([2]; 4 hours post introduction): 0.0
- Affected, Means ([2]; 24 hours post introduction): 4.2
- Dead, Means ([2]; 24 hours post introduction): 0.0
- KD, Means ([2]; 24 hours post introduction): 4.2
- Affected, Means ([2]; 48 hours post introduction): 6.4
- Dead, Means ([2]; 48 hours post introduction): 6.4
- KD, Means ([2]; 48 hours post introduction): 0.0
- Affected, Means ([2]; 72 hours post introduction): 10.9
- Dead, Means ([2]; 72 hours post introduction): 10.9
- KD, Means ([2]; 72 hours post introduction): 0.0
- Affected, Means ([3]; 30 minutes post introduction): 0.0
- Dead, Means ([3]; 30 minutes post introduction): 0.0
- KD, Means ([3]; 30 minutes post introduction): 0.0
- Affected, Means ([3]; 1 hour post introduction): 0.0
- Dead, Means ([3]; 1 hour post introduction): 0.0
- KD, Means ([3]; 1 hour post introduction): 0.0
- Affected, Means ([3]; 4 hours post introduction): 0.0
- Dead, Means ([3]; 4 hours post introduction): 0.0
- KD, Means ([3]; 4 hours post introduction): 0.0
- Affected, Means ([3]; 24 hours post introduction): 14.0
- Dead, Means ([3]; 24 hours post introduction): 2.0
- KD, Means ([3]; 24 hours post introduction): 12.0
- Affected, Means ([3]; 48 hours post introduction): 28.0
- Dead, Means ([3]; 48 hours post introduction): 28.0
- KD, Means ([3]; 48 hours post introduction): 0.0
- Affected, Means ([3]; 72 hours post introduction): 44.0
- Dead, Means ([3]; 72 hours post introduction): 42.0
- KD, Means ([3]; 72 hours post introduction): 2.0
- 48-hour Mortality Mean (%) ([4]; 6.25 μg a.i./bee topical): 10%
- 48-hour Mortality (%), replicates A-C ([4]; 6.25 μg a.i./bee topical): 0% and 10% and 20%
- 48-hour Mortality Mean (%) ([4]; 12.5 μg a.i./bee topical): 10%
- 48-hour Mortality (%), replicates A-C ([4]; 12.5 μg a.i./bee topical): 0% and 10% and 20%
- 48-hour Mortality Mean (%) ([4]; 25 μg a.i./bee topical): 0%
- 48-hour Mortality (%), replicates A-C ([4]; 25 μg a.i./bee topical): 0%
- 48-hour Mortality Mean (%) ([4]; 50 μg a.i./bee topical): 3.3%
- 48-hour Mortality (%), replicates A-C ([4]; 50 μg a.i./bee topical): 0% (2×) and 10%
- 48-hour Mortality Mean (%) ([4]; 100 μg a.i./bee topical): 13.3%
- 48-hour Mortality (%), replicates A-C ([4]; 100 μg a.i./bee topical): 10% (2×) and 20%
- NOEC (No Observable Effect Concentration) ([4]; 48-hour mortality, highest concentration tested): 100 μg a.i./bee
- Mortality in the treatment groups at the end of the test ([4]; all doses 6.25 to 100 μg a.i./bee, 48 hours, listed as Nootkatone 98%): less than 50%
